Source: ChEMBL document CHEMBL4340571, “Investigation of flexibility of neuraminidase 150-loop using tamiflu derivatives in influenza A viruses H1N1 and H5N1” (Bioorg Med Chem, 2019)

Experiments:
[1] = Inhibition of Influenza A virus (A/California/07/2009(H1N1)) Neuraminidase N1 at pH 7.4 by DIANA assay
[2] = Selectivity index, ratio of Ki for inhibition of Influenza A virus (A/California/07/2009(H1N1)) Neuraminidase N1 by DIANA assay to Ki for inhibition of influenza A virus chicken/Nakorn- Patom/Thailand/CU-K2-2004 Neuraminidase N1 by DIANA assay
[3] = Inhibition of Influenza A virus (A/California/07/2009(H1N1)) Neuraminidase N1 at pH 6.15 using 4-MUNANA substrate incubated for 20 mins by fluorometric assay

CCC(CC)O[C@@H]1C=C(C(=O)O)C[C@H](n2cc(CNc3ccccc3C(N)=O)nn2)[C@H]1NC(C)=O
Ki [1]: 13 µM
Ratio Ki [2]: 2 to 4

CCC(CC)O[C@@H]1C=C(C(=O)O)C[C@H](n2cc(C[C@H](N)C(=O)O)nn2)[C@H]1NC(C)=O
Ki [1]: 64 µM
Ratio Ki [2]: 2 to 4

CCC(CC)O[C@@H]1C=C(C(=O)O)C[C@H](NCc2cn(CC(=O)N(C)C)nn2)[C@H]1NC(C)=O
Ki [1]: 5.9 µM

CCC(CC)O[C@@H]1C=C(C(=O)O)C[C@H](n2cc(CNc3cccc(C(F)(F)F)c3)nn2)[C@H]1NC(C)=O
Ki [3]: 0.47 µM
Ki [1]: 4.2 µM
Ratio Ki [2]: 2 to 4

CCC(CC)O[C@@H]1C=C(C(=O)O)C[C@H](n2cc(CN(C)c3ccc(OC)cc3)nn2)[C@H]1NC(C)=O
Ki [1]: 19 µM
Ratio Ki [2]: 2 to 4

CCC(CC)O[C@@H]1C=C(C(=O)O)C[C@H](N=[N+]=[N-])[C@H]1NC(C)=O
Ki [3]: 0.91 µM

CCC(CC)O[C@@H]1C=C(C(=O)O)C[C@H](n2cc(CNc3ccccc3)nn2)[C@H]1NC(C)=O
Ki [1]: 19 µM
Ratio Ki [2]: 2 to 4

CCC(CC)O[C@@H]1C=C(C(=O)O)C[C@H](NCc2cn(CC(C)(CO)CO)nn2)[C@H]1NC(C)=O
Ki [1]: 0.89 µM

CCC(CC)O[C@@H]1C=C(C(=O)O)C[C@H](n2cc(C[C@@]3(C(=O)O)CCCN3)nn2)[C@H]1NC(C)=O
Ki [1]: 98 µM
Ratio Ki [2]: 2 to 4

CCC(CC)O[C@@H]1C=C(C(=O)O)C[C@H](n2cc(CNc3ccc(C(N)=O)c(C(F)(F)F)c3)nn2)[C@H]1NC(C)=O
Ki [1]: 14 µM
Ratio Ki [2]: 2 to 4

CCC(CC)O[C@@H]1C=C(C(=O)O)C[C@H](n2cc(-c3ccsc3)nn2)[C@H]1NC(C)=O
Ki [1]: 16 µM
Ratio Ki [2]: 2 to 4

CCC(CC)O[C@@H]1C=C(C(=O)O)C[C@H](n2cc(CO)nn2)[C@H]1NC(C)=O
Ki [3]: 0.47 µM
Ki [1]: 12 µM
Ratio Ki [2]: 2 to 4

CCC(CC)O[C@@H]1C=C(C(=O)O)C[C@H](n2cc(-c3cccs3)nn2)[C@H]1NC(C)=O
Ki [1]: 20 µM
Ratio Ki [2]: 2 to 4

CCC(CC)O[C@@H]1C=C(C(=O)O)C[C@H](n2cc(CNc3ccc(NC(C)=O)cc3)nn2)[C@H]1NC(C)=O
Ki [1]: 9.1 µM
Ratio Ki [2]: 2 to 4

CCC(CC)O[C@@H]1C=C(C(=O)O)C[C@H](n2cc(CNc3cc(F)ccc3OC)nn2)[C@H]1NC(C)=O
Ki [1]: 22 µM
Ratio Ki [2]: 2 to 4

CCC(CC)O[C@H]1CC(C(=O)O)=C[C@@H](n2cc(CN3CCS(=O)(=O)CC3)nn2)[C@@H]1NC(C)=O
Ki [1]: 340 µM
Ratio Ki [2]: 2 to 4

CCC(CC)O[C@@H]1C=C(C(=O)O)C[C@H](NCc2cn(CC(=O)O)nn2)[C@H]1NC(C)=O
Ki [1]: 2.8 µM

CCC(CC)O[C@@H]1C=C(C(=O)O)C[C@H](NCc2cn(CCO)nn2)[C@H]1NC(C)=O
Ki [3]: 0.65 µM
Ki [1]: 0.75 µM

CCC(CC)O[C@@H]1C=C(C(=O)O)C[C@H](n2cc(COCC(C)(CO)CO)nn2)[C@H]1NC(C)=O
Ki [1]: 180 µM
Ratio Ki [2]: 2 to 4

CCC(CC)O[C@@H]1C=C(C(=O)O)C[C@H](N)[C@H]1NC(C)=O [OSELTAMIVIR CARBOXYLATE]
Ki [3]: 0.024 µM
Ki [1]: 0.031 µM

CCC(CC)O[C@@H]1C=C(C(=O)O)C[C@H](NCc2cn(CC(=O)NC)nn2)[C@H]1NC(C)=O
Ki [3]: 0.87 µM
Ki [1]: 1.2 µM

CCC(CC)O[C@@H]1C=C(C(=O)O)C[C@H](NCc2cn(CCN3CCS(=O)(=O)CC3)nn2)[C@H]1NC(C)=O
Ki [1]: 12 µM

CCOC(=O)C1=C[C@@H](OC(CC)CC)[C@H](NC(C)=O)[C@@H](N)C1 [OSELTAMIVIR PHOSPHATE]
Ki [1]: 2 µM
